Values of other authors, collected in patent publication US20230012071A1, “MODIFIED RELEASE PHARMACEUTICAL COMPOSITIONS OF RIOCIGUAT” (ZYDUS LIFESCIENCES LIMITED, priority 2019, published 2023).

Conditions: existing marketed immediate release tablet

In the case of `COC(=O)N(C)c1c(N)nc(-c2nn(Cc3ccccc3F)c3ncccc23)nc1N`, the absolute bioavailability is listed as “about 94%” and the “time at which peak plasma concentrations are observed following drug administration” value is listed as at most 1.5 h.
